Laboratory results from paper PMC9598407, “Identification of Staphylococcus aureus Penicillin Binding Protein 4 (PBP4) Inhibitors” (Antibiotics, 2022).
Entries after “also recorded” stand apart in the source; their conditions may differ.

How the values were obtained:
[1] = tested on: pbp4 expression in S. aureus USA300; assay: qRT-PCR of pbp4 transcript titers, USA300; assay type: cell-based, Staphylococcus aureus; settings: 25 µM compound, 3 h
Description: Given that each of the six compounds appeared to affect PBP4-mediated antibiotic resistance, we considered that their effects may be modulated by either inhibiting the protein’s function or by reducing pbp4 expression, the latter of which may be readily overcome by regulatory mutations that could in-turn easily result in resistance. Thus, we sought to prioritize compounds that may affect the protein’s function and de-prioritize compounds that affect the protein’s expression. Quantitative real-time reverse transcriptase PCR (qRT-PCR) was used to measure the pbp4 transcript titers within USA300 and CRB cells following compound treatment (Figure 2). […] We chose to focus the remainder of our studies on 9314848 (Figure 3A) because the molecule appeared the more druggable and chemically tractable for downstream structure activity relationship studies.
PBP4 transcript titers of bacterial cells exposed to putative PBP4 inhibitors were measured using real time quantitative PCR (RT-qPCR), as previously described. […] Bacterial RNA was amplified and measured using PerfeCTa SYBR Green FastMix and qScript cDNA SuperMix kits following the manufacturer’s recommendations (QuantaBio, Beverly, MA, USA). […]

[2] = tested on: S. aureus strain CRB∆pbp4; assay: Fractional inhibitory concentration checkerboard, ceftobiprole + putative PBP4 inhibitor, strain CRB∆pbp4; assay type: cell-based, Staphylococcus aureus
S. aureus USA300 [3] = assay: Triton X-100 susceptibility growth study; assay type: cell-based, Staphylococcus aureus; settings: wild type USA300, 12.5 µM compound
Description: Cheung and colleagues have shown that S. aureus tolerance to Triton X-100 is mediated by PBP4 [25]. More directly, wild type cells are tolerant of 0.1% of the detergent, while pbp4 mutant cells are not. Accordingly, as a first test of whether 9314848 may affect PBP4’s cellular function, we evaluated whether compound treated wild type cells phenocopy the growth defect of pbp4 mutant cells in the presence of 0.1% triton X-100 (Figure 3B).
The effect of putative PBP4 inhibitors on bacterial growth in media supplemented with Triton X-100 was measured, as previously described. […] Cell suspensions were incubated at 37 °C with aeration and cell density (OD600nm) was recorded hourly for a total of 7–8 h.

S. aureus strain USA300 = assay: microbe, parasite or virus in culture; assay type: cell-based; settings: Staphylococcus aureus, USA300, read-out: Ceftobiprole resistance (MIC) in the presence of compound
Procedure: Fractional inhibitory testing was performed in checkerboard format to determine whether putative PBP4 inhibitors potentiated the antimicrobial effects of β-lactams toward S. aureus strains USA300 and CRB, as previously described. To do so, in triplicate 10^5 CFU of each strain (10 µL) was added to individual wells of a microtiter plate containing 90 µL MH media. […] Plates were incubated at 37 °C for 16–20 h and the lowest concentration of each test agent that inhibited bacterial growth alone or in combination was determined by the naked eye. The fractional inhibitory concentration (FIC) index was calculated using the formula: FIC of A (MIC of drug A in combination/MIC of drug A alone) + FIC B ([…]/MIC of drug B alone). A synergistic interaction was defined as a FICI value of less than 0.5, an additive interaction was defined as a FICI value between 0.5 and 1.0, an indifferent interaction was defined as a FICI value between 1.0 and 4.0, and an antagonistic interaction was defined as a FICI value of more than 4.0 [46].

S. aureus USA300 [4] = assay: µSiM-CA membrane transmigration; assay type: cell-based, Staphylococcus aureus
Procedure: Thus, we tested 9314848 for its ability to eliminate S. aureus migration through µSiM-CA membrane pores. […] Conversely, the USA300∆pbp4 strain was unable to efficiently transverse the membrane, verifying that PBP4 is required for S. aureus membrane transmigration, as previously reported. To evaluate whether 9314848 is capable of eliminating PBP4-associated S. aureus µSiM-CA membrane migration, 1 × 10^7 CFU wild type cells were incubated with 0, 3.125, 6.25, 12.5, or 25 µM of the compound for 2 h then applied to the top chamber of the device. Following incubation, cells in the top and bottom chambers were enumerated.
The effect of PBP4 inhibitors on S. aureus migration through 500 nm nanoporous membranes modeling the orifices of osteocyte lacuno-canalicular networks was investigated using a µSiM-CA device, as previously described. Briefly, µSIM-CA systems were fabricated by SiMPore Inc. (West Henrietta, NY, USA) to include a top and a bottom chamber that were separated by 400 nm thick silicon nitride membrane containing an array of 500 nm pores, allowing for quantification of bacteria that migrate from the apical (top) well to the basal (bottom) well. To measure bacterial migration through the device membrane, S. aureus strains USA300 or USA300∆pbp4 were grown overnight at 37 °C with aeration, diluted (1:100) in fresh MH media, and then grown to mid-exponential phase (OD600nm = 0.2) in the presence or absence of putative PBP4 inhibitor for approximately 2 h at 37 °C shaking with aeration. A total of 100 µL of cell mixture (~1 × 10^7 CFU) was transferred into the top reservoir of the device and incubated for 6 h at 37 °C. A total of 10 µL of media from the apical and basal reservoirs was collected, serial diluted in 0.8% NaCl, and plated on MH agar plates for bacterial enumeration.

**Q.** For `CC1CCN(C(=O)c2cccc(NC(=O)Nc3ccc(Cl)cc3)c2)CC1` [Compound 9314848], which “pbp4 expression (mRNA titer, qRT-PCR)” value [1] is on record?
**A.** did not seem to affect pbp4 expression; also recorded: did not significantly impact pbp4 transcription

**Q.** And the MIC ([2]; Staphylococcus aureus, read-out: CRB∆pbp4 Alone Cmpd (putative PBP4 inhibitor MIC alone))?
**A.** 400 µM

**Q.** And the “CRB∆pbp4 Combination BPR (ceftobiprole MIC in combination)” value ([2]; strain CRB∆pbp4, ceftobiprole combined with the indicated putative PBP4 inhibitor)?
**A.** 0.125 µg/mL

**Q.** What about the “CRB∆pbp4 Combination Cmpd (compound concentration in combination)” value ([2]; strain CRB∆pbp4, compound combined with ceftobiprole) of the same compound?
**A.** 25 µM

**Q.** What about the “CRB∆pbp4 Fold-decrease in ceftobiprole resistance in combination” value ([2]; strain CRB∆pbp4, in combination with the indicated putative PBP4 inhibitor) of the same compound?
**A.** 2 fold

**Q.** And the “Growth in the presence of Triton X-100” value (S. aureus USA300 [3]; 0.1% Triton X-100)?
**A.** exhibited growth defect

**Q.** What about the “Growth in the absence of detergent” value (S. aureus USA300 [3]; no Triton X-100) of the same compound?
**A.** did not display a growth defect

**Q.** What about the MIC (S. aureus strain USA300) of the same compound?
**A.** 0.25 µg/mL

**Q.** And the “Viability of cells within the top/treatment chamber” value (S. aureus USA300 [4]; 0-25 µM compound)?
**A.** did not affect the viability

**Q.** And the “Effect on S. aureus membrane transmigration” value (S. aureus USA300 [4]; concentrations greater than 6.25 µM (2.5 µg/mL))?
**A.** completely inhibited

**Q.** And the “Effect on S. aureus membrane transmigration” value (S. aureus USA300 [4]; ≤3.125 µM)?
**A.** no effect
